We go through 90 compounds from a melting point compilation (Tetko et al.; mined from patent text by program, amines drawn as free bases though some values may be those of a salt).

For orientation: melting point means the temperature, or range, at which the solid turns liquid.

As to `COc1ccc2c(c1)N(C(C)=O)C1=C(S2)C(S(C)(=O)=O)=CCC1=O`, the melting point was found to be 160 °C. As to `Oc1ccccc1-n1cnc(-c2ccccc2)n1`, the melting point was in the range of 148 to 154 °C. The same measure for `Cc1nnc(-c2ccc3occ(-c4ccc(OC(F)(F)F)cc4)c3c2)o1`: 129 to 130 °C; for `OC1(c2ccc3[nH]cc(CCN4CCCC4)c3c2)CCCCC1`: 66 to 78 °C. The figure for `O=C(O)Cc1c(C(=O)O)c2cc(Oc3ccc(Cl)cc3)ccc2n1-c1ccc(N2CCCCC2)cc1` is 183 to 187 °C; for `CNC(=C[N+](=O)[O-])NCCSCc1csc(CN2CCCCC2)n1` it is 100 to 103 °C. The figure for `O=C(NC(Cc1ccc(C(F)(F)F)cc1)C(O)c1ccc(F)cc1)c1cccc(-c2ccccc2)c1` (stereo not given) is 165 to 166 °C; for `CC(c1ccc(NC=O)c([N+](=O)[O-])c1)n1ccnc1` (stereo not given) it is 158 °C; for `CC(C)C(C(=O)O)c1ccc(O)cc1` (stereo not given) it is 172 to 174 °C. Take `CCC(=S)N1CCSC1=Nc1ccccc1C(C)C`: the melting point was 79 to 81 °C.

Compound `CCCS(=O)(=O)N1CCC(c2nc3cc(-c4ccc(C(N)=O)c(F)c4)ccc3o2)CC1` showed a melting point of 222 to 225 °C.

The compound `CC1NC(=O)OC1c1ccc(C(F)(F)F)cc1` (stereo not given) gave a melting point of 158 to 159 °C. The same measure for `CC(=O)c1cc(-c2cccc(F)c2)c(=O)n2c1-c1sccc1CC2`: 109 to 110 °C. The same measure for `CC(=O)Oc1cccc2c1C(=O)c1c(OC(C)=O)cc(-c3nc4ccccc4n3C)cc1C2=O`: 279 to 280 °C; for `COC(=O)c1scc(C)c1-n1cccc1`: 76 °C; for `OC(Cn1cncn1)(c1ccc(F)cc1F)C(F)n1cncn1` (stereo not given): 117 to 123 °C. The compound `Cc1[nH]c2cccc3c2c1CC1C3CC(N)CN1C` (stereo not given) had a melting point of 240 °C. The same measure for `O=c1cc2c(nn1-c1ccc(Cl)cc1)-c1cc(Cl)ccc1SCC2`: 215 to 217 °C; for `Cc1ccccc1C(=O)Nc1ccc(C(=O)N2CCCC(OCCO)c3cc(Cl)ccc32)cc1` (stereo not given): 185 to 188 °C.

`O=C(c1ccc(F)cc1)C1(n2cncn2)CC1` returned a melting point of 73 to 75 °C. The same measure for `COc1ccc2nc(-c3ccc(C)c(C)c3)n(-c3ccccc3)c2c1`: 251 °C. The same measure for `Cc1c(C=CC#N)cccc1[N+](=O)[O-]`: 136 °C; for `Cc1cc(Nc2nccc(-c3sc(CO)nc3C)n2)ccc1N1CCCCC1`: 142 to 144 °C; for `CNC(=O)c1cc(N2CCCC2)cc(C)c1C(N)=O`: 160 °C.

On to `CCCOc1ccc(NC(C)=O)cc1C1=NC(=O)C2=NC=NC2=N1`, for which the melting point lay within 320 to 323 °C. The figure for `CSc1nsc(-c2ccccc2)n1` is 57.1 °C; for `CCCc1nc2c(N)nc(C)c(C)c2n1CCCCCCS(C)(=O)=O` it is 157 to 158 °C. The same measure for `C[C@H](c1ccncn1)[C@@](O)(CO)c1ccc(F)cc1F`: 148 to 150 °C; for `Cc1c(-c2ccc(NC(=O)OCC(C)C)cc2)nc2n1CCc1ccccc1C2OC1CCN(C)CC1` (stereo not given): 196 °C. The figure for `O=C(O)COC1(Cl)C=C2ONC(c3ccccc3F)=C2C(Cl)=C1Cl` (stereo not given) is 222 to 224 °C; for `O=c1oc2c(c(O)c1Sc1nc3ccccc3o1)c(=O)n(Cc1ccccc1)c1ccccc21` it is 196 to 198 °C; for `CN(C(=O)c1ccc2nonc2c1)[C@H]1CC[C@H](N=[N+]=[N-])CC1` it is 149 to 150 °C. Compound `CCSc1ccc2cccc(CCNC(C)=O)c2c1` gave a melting point of 65 to 66 °C. In turn, `CNC(=O)c1c(N)n(C2CCCC2)c2nc(Cl)ccc2c1=O` had a melting point of 256 to 258 °C. The figure for `COc1ccc(C2Sc3ccccc3N(CCN(C)C)C(=O)C2OC(=O)c2cccc([N+](=O)[O-])c2)cc1` (stereo not given) is 178 to 180 °C; for `CCC(CC)n1cc(Br)nc(N2CCc3cc(OC)cc(Br)c32)c1=O` it is 133 to 135 °C; for `COc1cc2cc(C(C)C)sc2c(Cl)c1Cl` it is < 37 °C. The figure for `O=C(O)c1nc(N2CCCC2)ccc1OCc1ccccc1` is 120 to 122 °C; for `Nc1nc(CCCCN2CCN(c3ncccn3)CC2)cs1` it is 101 to 104 °C; for `O=c1c(CCCCBr)c(O)c2cccnc2n1-c1ccccc1` it is 169 to 171 °C. The figure for `c1ccc(CCN2CCN(c3nc4cccc5c4n3CCC5)CC2)cc1` is 112 to 113 °C; for `CC(=O)NC[C@H]1CN(c2ccc(N3CCC(C#N)(Nc4ccccc4)CC3)c(F)c2)C(=O)O1` it is 81 to 85 °C. `CCN(CC)c1ccc2c(c1)CC(=O)N2`: the melting point was 122 to 124 °C. The same measure for `Cn1cnc(COc2nc3c(cc2-c2cccc(F)c2)nnn3-c2ccccc2F)n1`: 202 to 205 °C. `CC(c1ccc(O)cc1)(c1ccc(O)cc1)c1ccc(-c2ccccc2)cc1`: the melting point lay within 182 to 183 °C. As for `Cc1cc(=O)c(-c2ccc(Oc3ccc(OC(F)(F)F)cc3)cc2)c(C)[nH]1`, the melting point fell in the range of 244 to 248 °C. The figure for `CCN(CC)CC1CCCCN1CCNC(=O)N1c2cccnc2NC(=O)c2c1c(C)nn2C` (stereo not given) is 138 to 139 °C. With `CN(C)CCCn1c(-c2ccccc2)cc2ccccc21`, the melting point turned out to be 52 °C.

`N#CCC(O)(Cn1cncn1)c1ccc(F)cc1F` (stereo not given) had a melting point of 154 to 155 °C.

The compound `CCS(=O)(=O)CCN1CCCCC1` came in with a melting point of 45 to 47 °C.

The compound `Nc1cc(Cl)cc(Cl)c1C(=O)NCc1ccccc1F` registered a melting point of 154 to 158 °C. The same measure for `O=[N+]([O-])c1ccc(Sc2ccccc2)c(CCl)c1`: 58 to 60 °C; for `CN(C)C(=O)CCNC(=O)c1ccc(-c2ccc3nnn(Cc4ccc5ncccc5c4)c3n2)cc1F`: 163 to 165 °C. The same measure for `C#CCCC(=O)N1CCC(=Cc2ccc(C3=NCCO3)cc2)CC1`: 118 °C; for `CSC1C(=O)CC2C3CCC4=CC(=O)C=CC4(C)C3(F)C(OC(C)=O)CC12C` (stereo not given): 235 to 237 °C; for `Cc1nn(C)c2ncc(C(=O)O)c(NCS(=O)(=O)c3ccc(F)cc3)c12`: 275 to 276 °C.

The compound `CCOC(=O)CSc1nc(Cl)cc(NCc2ccc(C)cc2C)n1` registered a melting point of 95 to 98 °C. The figure for `COc1ccc(-c2cc3cc(F)c(F)cc3[nH]2)cc1N` is 210 to 211 °C; for `Cc1cc(-c2n[nH]c(-c3ccncc3)n2)ccn1` it is 245 to 248 °C; for `CSc1cc(N)nc(C(N)=O)c1` it is 158 to 159 °C. Compound `O=C1OC(=Nc2ccc(Cl)cc2F)C2=C1CCCC2` displayed a melting point of 81 to 84 °C. The figure for `COc1ccc(-c2nc3cc(C(C(C)C)n4ccnc4)ccc3[nH]c2=O)cc1OC` (stereo not given) is 243 °C. `N#Cc1ncn2c1nc(N1CCOCC1)c1ccccc12` gave a melting point of 225 to 228 °C.

In turn, `COC(=O)c1ccoc1-c1cccc([N+](=O)[O-])c1` had a melting point of 93 to 94 °C. The same measure for `CCCOc1ccccc1CCOc1ccc2c(c1)C=C(C(=O)Nc1ccc(CN(C)C3CCOCC3)cc1)CCS2(=O)=O`: 161 to 162 °C; for `Cc1ccc(N(C=C(C#N)C#N)N=C(C#N)C#N)cc1C`: 162 to 163 °C; for `CC1=C(C(=O)NC(C)(C)C)C(c2ccccc2Br)C(C(=O)OC(C)C)=C(COCCn2c(C)nc3cnccc32)N1` (stereo not given): 160 to 165 °C. The same measure for `CCc1c(C)c(NC(=O)NC(C)(C)C)c(C)c2c1OCC2c1ccc(C(C)C)cc1` (stereo not given): 207 to 209 °C; for `CCNc1ccc(Cl)cc1C(=O)c1ccccc1`: 57 to 58 °C.

As for `CS(=O)(=O)c1cc(C(=O)NCCN2CCOCC2)c(NCc2ccco2)cc1Cl`, the melting point fell in the range of 127 to 130 °C.

In turn, `COc1cccc([C@H]2O[C@H](CC(=O)Nc3cc4c(c(C(=O)O)c3)CCCC4)C(=O)N(CC(C)(C)CO)c3ccc(Cl)cc32)c1OC` returned a melting point of 178 to 179 °C. Compound `O=C(CCl)N1Cc2ccccc2P1(=O)c1ccccc1` (stereo not given) showed a melting point of 167 to 169 °C. The same measure for `OC1CCc2oc3c(Cl)cc(Br)cc3c2C1` (single isomer, unassigned; (-)): 236 to 240 °C. The figure for `CCc1noc(-c2cn(-c3ccc(OC)cc3)cn2)n1` is 147 to 148 °C. The figure for `Nc1ncc(-c2cnc3ccc(-c4ccc(OCC5(NC(=O)OCc6ccccc6)COC5)cc4)nn23)cc1C(F)(F)F` is 202 to 203 °C; for `COC(=O)c1cc(S(C)(=O)=O)c(S(F)(F)(F)(F)F)cc1C` it is 127 °C; for `COc1ccc(N(CCC(=O)O)C(=O)Cl)cc1` it is 90 °C. Consider `CC(C)(C)OC(=O)N[C@@H](C(=O)N1CCC[C@H]1C(=O)NCC1CCc2n[nH]cc2C1)C(c1ccccc1)c1ccccc1` (stereo not given in full), for which the melting point is 113 to 116 °C. The figure for `COC(=O)N1CC1C(N)=O` (stereo not given) is 117 to 120 °C; for `COc1ccc2[nH]c(=O)n(S(=O)(=O)c3ccc(Cl)cc3)c(=O)c2c1` it is 192 to 194 °C. `CN(C=O)C1CCN(CC2=Cc3ccccc32)CC1` registered a melting point of 86 to 88 °C.

Consider `COC(=O)c1cc(S(N)(=O)=O)c(OC)c2c1OCCO2`, for which the melting point was 202 to 203 °C. Consider `CC(C)S(=O)(=O)c1ccc2c(c1)nc(CC1(C)CCCC1)n2CC1CC1`, for which the melting point stood at 122 °C. `CCCCNC(=O)[C@@H](C[C@H](O)[C@@H](N)CC1CCCCCC1)C(C)C` gave a melting point of 81 to 82 °C. The same measure for `Nc1nc2ccccc2c2c1ncn2CCCC(=O)c1ccccc1`: 209 to 211 °C; for `CS(=O)c1ccc(-c2ccc(C=C(Cl)Cl)s2)cc1` (stereo not given): 124 to 126 °C; for `Cc1c(Cc2cccnc2)sc2cc(Br)ccc12`: 69 to 70 °C. The figure for `Cc1ccc(-c2cc[nH]c2C=O)cc1` is 149 to 150 °C. Regarding `CC(CCNC(=O)c1ccc(Oc2ccc(F)cc2)o1)N(O)C(N)=O` (stereo not given), the melting point was 161 to 163 °C. Take `OCc1cc2sccc2s1`: the melting point was in the range of 91 to 93 °C.
